# Legend:
# [1] = in vivo metabolite study (metabolic stability, radio-HPLC of brain homogenate and plasma); set-up: species or system female CD-1 mice; conditions: for percentage of intact radiotracer in the brain / percentage of intact radiotracer in the plasma: female CD-1 mice, 30 min after the injection, radio-HPLC; for metabolic stability (comparison in words): in vivo, compared with another radiotracer
# Protocol: The metabolic stability of [^18F]JHU94620-D4 was determined in accordance with the method described by Moldovan et al., J. Med. Chem. 2016, 59, 7840-7855. In the same way, the metabolic stability of JHU94620 and [^18F]JHU94620 was determined. The radio-HPLC chromatograms shown in FIGS. 3 and 4 were determined using a ReproSil-Pur C18 AQ column (250×4.6 mm, […]; eluting agent: 10-90-10% MeCN/20 mM NH4OAc; flow: 1 ml/min). JHU94620 has the following formula: […]
# It is seen in FIG. 4 that in the in vivo metabolite study in female CD-1 mice the percentage of intact radiotracer [^18F]JHU94620-D4 in the brain was ~80% (radio-HPLC, extraction yield >97%) and in the plasma was ~15% (radio-HPLC, extraction yield >95%) 30 min after the injection.
# In the in vivo metabolite study in female CD-1 mice in case of JHU94620 the percentage of intact radiotracer in the brain was 36% (radio-HPLC, n=3, extraction yield 93%) and in the plasma was 7% (radio-HPLC, n=3, extraction yield 94%) of the total activity 30 min after the injection.
# [2] = background statement on prior-art compound; cited from earlier work
# CBR2 [3] = target: T1, CBR2 (Homo sapiens, UniProt P34972); assay: homolog competition assay, homogenate of CHO cells stably transfected with human CBR2 receptor, radioligand [^18F]JHU94620-D8; format: binding; set-up: expressed in transfected cells; host or cells: CHO cells (stably transfected), used as homogenate
# Protocol: The equilibrium dissociation constant KD was determined by means of a homolog competition assay. For that, a constant amount of binding protein (homogenate of CHO cells that were stably transfected with human CBR2 receptor; 2 Mio. cells/mL of the batch) was incubated with a constant amount of [^18F]JHU94620-D8 (0.101 nM in the batch) and an increasing concentration of JHU94620 (0.01 nM-10 µM in the batch) for 60 minutes at room temperature in binding buffer (50 mM TRIS-HCl, pH 7.4, with 5 mM of MgCl2, 1 mM EDTA, 1% BSA). Separation of receptor-bound and free radioligand was carried out by filtration over GF/B glass fiber filter incubated with 0.3% of polyethylene imine. Quantification of receptor-bound radioligand was carried out by measuring the filter-bound radioactivity in a gamma counter. Determination of the unspecific bonding of [^18F]JHU94620-D8 was carried out by co-incubation with CP55940 (10 µM in the batch), determination of the adsorption of the radioligand at the glass fiber filter was carried out by incubation without binding protein. […] CP55940 is a synthetic cannabinoid.
# CBR2 [4] = target: T1, CBR2; assay: CBR2 equilibrium dissociation constant Ki via Cheng-Prusoff equation; format: binding; conditions: n = 3; read-out: CBR2 affinity Ki
# Protocol: Using the Cheng-Prusoff equation
# the CBR2 equilibrium dissociation constant Ki of JHU94620 was determined. Here, L designates the concentration of the free ligand. […] Replacing hydrogen atoms by […] shall not have any influence on the Ki value. This also applies to the replacement of hydrogen atoms by tritium ions.
# T1 sequence (P34972 whole entry): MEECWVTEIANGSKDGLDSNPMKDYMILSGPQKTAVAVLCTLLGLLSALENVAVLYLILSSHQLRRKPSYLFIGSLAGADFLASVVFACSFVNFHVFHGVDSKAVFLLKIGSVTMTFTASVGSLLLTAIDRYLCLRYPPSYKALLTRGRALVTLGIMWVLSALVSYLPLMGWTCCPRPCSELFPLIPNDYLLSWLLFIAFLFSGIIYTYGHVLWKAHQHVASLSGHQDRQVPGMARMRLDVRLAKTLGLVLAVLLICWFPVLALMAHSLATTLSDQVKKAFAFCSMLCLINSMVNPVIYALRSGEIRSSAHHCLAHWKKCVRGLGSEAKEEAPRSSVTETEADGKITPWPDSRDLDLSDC
SMILES,percentage of intact radiotracer in the brain [1],percentage of intact radiotracer in the plasma [1],metabolic stability (comparison in words) [1],metabolic stability (prior art statement) [2],"IC50 (CBR2 [3]; competition of JHU94620 (0.01 nM-10 µM) with 0.101 nM [^18F]JHU94620-D8, 60 minutes, room temperature)",Ki (CBR2 [4]),"Kd (CBR2 [3]; calculated as KD = IC50 - radioligand (simplified Cheng-Prusoff), read-out: equilibrium dissociation constant KD)"
"[2H]C([2H])([18F])CCC([2H])([2H])n1c(C)c(C)s/c1=N\C(=O)C1C(C)(C)C1(C)C [[^18F]JHU94620-D4, N-(3-(4-([^18F]fluoro)butyl-1,1,4,4-d4)-4,5-dimethylthiazole-2(3H)-ylidene)-2,2,3,3-tetramethylcyclopropane-1-carboxamide]",~ 80%,~ 15%,substantially higher metabolic stability than [^18F]JHU94620,–,–,–,–
"Cc1s/c(=N\C(=O)C2C(C)(C)C2(C)C)n(CCCC[18F])c1C [[^18F]JHU94620, N-(3-(4-([^18F]fluoro)butyl)-4,5-dimethylthiazole-2(3H)-ylidene)-2,2,3,3-tetramethylcyclopropane-1-carboxamide]",38%,–,–,low metabolic stability,–,–,–
Cc1s/c(=N\C(=O)C2C(C)(C)C2(C)C)n(CCCCF)c1C [JHU94620],36%,7%,–,–,2.82 nM,0.4 nM,–
"[2H]C([2H])([18F])C([2H])([2H])C([2H])([2H])C([2H])([2H])n1c(C)c(C)s/c1=N\C(=O)C1C(C)(C)C1(C)C [[^18F]JHU94620-D8, N-(3-(4-([^18F]fluoro)butyl-1,1,2,2,3,3,4,4-ds)-4,5-dimethylthiazole-2(3H)-ylidene)-2,2,3,3-tetramethylcyclopropane-1-carboxamide]",–,–,highly similar to that of [^18F]JHU94620-D4,–,–,–,2.72 nM

# Reference: US20230312493A1, “DEUTERATED AND TRITIATED N-(4,5-DIMETHYLTHIAZOLO-2(3H)-YLIDEN)-2,2,3,3-TETRAMETHYLCYCLOPROPANE-1-CARBOXAMIDE DERIVATIVES AND THE USE THEREOF” (HELMHOLTZ-ZENTRUM DRESDEN-ROSSENDORF E.V., priority 2020, published 2023)
